Experimental data as given in patent US7820703B2, “Lysophosphatidic acid receptor selective antagonists” (University of Virginia Patent Foundation, priority 2004, dated 2010).
“Also recorded” adds a separate entry of the source. Values belong to the molecule of their own block, whether it stands above or below them.

Columns and labels:
Assay type in all cases: biochemical
human LPA3 [1] = biological target: T1, human LPA3 (Homo sapiens, UniProt Q9UBY5); test: GTP[γ35S] binding assay, agonist activity at LPA3; design: expressed in transfected cells; host or cells: HEK293T cells (membranes); conditions: for LPA3 Emax: LPA = 100; for EC50: transfected HEK293T cell membranes
T1 sequence (Q9UBY5 1-353): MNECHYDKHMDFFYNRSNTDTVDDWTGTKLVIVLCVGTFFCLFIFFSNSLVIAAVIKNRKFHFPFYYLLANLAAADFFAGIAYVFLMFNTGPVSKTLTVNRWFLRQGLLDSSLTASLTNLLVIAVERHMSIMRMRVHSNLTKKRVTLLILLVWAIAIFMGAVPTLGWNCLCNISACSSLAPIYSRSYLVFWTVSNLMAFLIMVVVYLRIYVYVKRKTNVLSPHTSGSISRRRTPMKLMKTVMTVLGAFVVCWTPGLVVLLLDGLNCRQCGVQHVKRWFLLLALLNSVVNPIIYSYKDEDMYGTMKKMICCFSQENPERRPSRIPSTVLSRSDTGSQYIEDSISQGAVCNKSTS
Protocol: (§1) The appropriate receptor plasmid DNA (encoding mouse LPA1, human LPA2 or human LPA3) was mixed with equal amounts of expression plasmids (pcDNA3) encoding a mutated (C351F) rat Gi2a, cow β1, and γ2 proteins and these DNAs were used to transfect monolayers of HEK293T cells (where ‘T’ indicates expression of the SV-40 virus large T antigen) using the calcium phosphate precipitate method. After about 60 hours, cells were harvested, membranes were prepared, aliquoted and stored at −70° C. until use.
(§2) The GTP[35 γS] assay was performed as described by us previously. Membranes containing 5 ug of protein were incubated in 0.1 ml GTP-binding buffer (in mM: HEPES 50, NaCl 100, MgCl2 10, pH7.5) containing […], […], 0.1 nM GTP[35 γS] (1200 Ci/mmol), and indicated lipid(s) for 30 minutes at 30° C. Samples were analyzed for membrane-bound radionuclide using a Brandel Cell Harvester (Gaithersburg, Md.). The C351F mutation renders the Gi2α protein resistant to inactivation by pertussis toxin or the alkylating agent N-ethylmaleimide; however in practice background binding was sufficiently low to obviate these maneuvers.
(§3) This assay isolates each recombinant LPA receptor and allows analysis of all three receptors using the same system.
(§4) Membranes prepared from these cells are used to measure GTPγ[^35S] binding as a function of test compound concentration. The resulting dose-response curves provide relative potency (EC50) and efficacy (Emax) for the test compounds.

human LPA2 [2] = biological target: T2, human LPA2 (Homo sapiens, UniProt Q9HBW0); test: GTP[γ35S] binding assay, agonist activity at LPA2; design: expressed in transfected cells; host or cells: HEK293T cells (membranes); conditions: for EC50: transfected HEK293T cell membranes; for LPA2 Emax: LPA = 100
T2 sequence (Q9HBW0 whole entry): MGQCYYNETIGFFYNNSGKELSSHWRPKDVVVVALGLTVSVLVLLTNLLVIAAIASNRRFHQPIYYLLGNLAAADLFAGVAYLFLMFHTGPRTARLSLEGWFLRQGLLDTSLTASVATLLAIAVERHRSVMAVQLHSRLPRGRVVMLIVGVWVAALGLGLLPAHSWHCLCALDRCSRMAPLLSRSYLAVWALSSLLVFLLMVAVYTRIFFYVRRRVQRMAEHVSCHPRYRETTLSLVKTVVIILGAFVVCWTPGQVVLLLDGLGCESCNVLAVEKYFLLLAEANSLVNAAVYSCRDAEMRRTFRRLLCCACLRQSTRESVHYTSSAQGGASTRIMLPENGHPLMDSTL
Protocol: as §1
(§5) The GTP[35 γS] assay was performed as described by us previously. Membranes containing 5 ug of protein were incubated in 0.1 ml GTP-binding buffer (in mM: HEPES 50, NaCl 100, MgCl2 10, pH7.5) containing […], […], 0.1 nM GTP[35 γS] (1200 Ci/mmol), and indicated lipid(s) for 30 minutes at 30° C. Samples were analyzed for membrane-bound radionuclide using a Brandel Cell Harvester (Gaithersburg, Md.).
as §4

LPA1 receptor = biological target: T3, LPA1 receptor (Mus musculus, UniProt P61793); test: antagonism of LPA-evoked GTP[γ35S] binding at LPA1; conditions: for antagonist activity at LPA1, in words: GTP[γ35S] binding; for IC50: antagonism of LPA-evoked GTP[γ35S] binding; for Ki: determined by Schild regression
T3 construct: expressed in transfected cells; host or cells: HEK293T cells (membranes)
T3 sequence (P61793 whole entry): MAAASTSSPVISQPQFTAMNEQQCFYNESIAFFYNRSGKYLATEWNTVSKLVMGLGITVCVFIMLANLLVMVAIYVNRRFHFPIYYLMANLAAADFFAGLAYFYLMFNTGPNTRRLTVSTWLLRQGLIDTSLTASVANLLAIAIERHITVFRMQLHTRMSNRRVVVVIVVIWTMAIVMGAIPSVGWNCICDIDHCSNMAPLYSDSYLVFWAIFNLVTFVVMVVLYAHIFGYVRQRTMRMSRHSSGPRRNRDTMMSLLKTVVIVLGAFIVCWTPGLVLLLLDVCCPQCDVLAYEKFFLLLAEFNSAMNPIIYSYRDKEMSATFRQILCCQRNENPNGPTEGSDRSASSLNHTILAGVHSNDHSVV
Protocol: as §1, §5
(§6) The X-intercept of the linear transformation is equal to the inverse log of the KI.
(§7) All compounds were characterized by ^1H and ^13C NMR, mass spectroscopy and, in certain cases, elemental analysis. A GTP[γ35S] binding assay was adapted to assess in vitro activity.
(§8) All compounds were characterized by ^1H and ^13C NMR, mass spectroscopy and, in most cases, C, H, N analyses. A membrane-based GTP[γ^35S] binding assay was adapted to assess in vitro activity at the LPA1 and LPA3 receptors.

human LPA3 [3] = biological target: T1, human LPA3; test: antagonism of LPA-evoked GTP[γ35S] binding at LPA3; design: expressed in transfected cells; host or cells: HEK293T cells (membranes); conditions: for antagonist activity at LPA3, in words: GTP[γ35S] binding; for IC50: antagonism of LPA-evoked GTP[γ35S] binding
Protocol: as §1, §5, §6, §7, §8

mouse LPA1 = mouse LPA1 (Mus musculus, UniProt P61793); test: GTP[γ35S] binding assay, agonist activity at LPA1; design: expressed in transfected cells; host or cells: HEK293T cells (membranes); conditions: for LPA1 Emax: LPA = 100; for EC50: transfected HEK293T cell membranes
Sequence of mouse LPA1 (P61793 whole entry): as above
Protocol: as §1, §2, §3, §4

LPP3 (PAP2b) = biological target: T4, LPP3 (PAP2b) (Homo sapiens, UniProt O14495); test: LPP inhibition, competition with [32P]LPA, LPP3; conditions: competition with 50 nM [32P]LPA
T4 sequence (O14495 1-311): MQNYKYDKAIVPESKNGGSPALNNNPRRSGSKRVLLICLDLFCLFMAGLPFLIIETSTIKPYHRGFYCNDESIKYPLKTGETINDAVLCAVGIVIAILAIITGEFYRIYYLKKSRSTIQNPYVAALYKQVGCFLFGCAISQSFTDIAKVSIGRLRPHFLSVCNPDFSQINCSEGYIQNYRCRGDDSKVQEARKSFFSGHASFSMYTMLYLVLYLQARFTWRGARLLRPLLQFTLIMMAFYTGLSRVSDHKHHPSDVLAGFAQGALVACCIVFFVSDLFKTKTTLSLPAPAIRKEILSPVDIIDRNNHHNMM
Protocol: NOHPP was also tested for activity at the three cloned LPPs. Although the phosphonate head group eliminates the possibility of NOHPP acting as a substrate, it is possible that the compound could be a competitive inhibitor.

human LPA2 [4] = biological target: T2, human LPA2; test: antagonism of LPA-evoked GTP[γ35S] binding at LPA2; design: expressed in transfected cells; host or cells: HEK293T cells (membranes)
Protocol: as §1, §2
All compounds were characterized by ^1H and ^13C NMR, mass spectroscopy and, in certain cases, elemental analysis. A GTP[γ35S] binding assay was adapted to assess in vitro activity. […] The Ki values as determined by Schild regression are shown for the LPA1 receptor. […]

- LPA3 Emax (human LPA3 [1]): 93.4
- EC50 (human LPA3 [1]): 113 nM
- LPA2 Emax (human LPA2 [2]): 95.2
- EC50 (human LPA2 [2]): 18.3 nM
- LPA1 Emax (mouse LPA1): 107.6
- EC50 (mouse LPA1): 3.4 nM
Molecule: CCCCCCCC/C=C\CCCCCCCC(=O)N[C@H](C)COP(=O)(O)O [VPC12086]
- agonist activity at LPA1, in words (mouse LPA1): more potent and efficacious than LPA; also recorded: more potent than 1-oleoyl LPA

- LPA3 Emax (human LPA3 [1]): 9.7
- EC50 (human LPA3 [1]): > 5000 nM
- LPA2 Emax (human LPA2 [2]): 6.9
- EC50 (human LPA2 [2]): > 5000 nM
- LPA1 Emax (mouse LPA1): 48.1
- EC50 (mouse LPA1): 2900 nM
Molecule: CCCCCCCC/C=C\CCCCCCCC(=O)N[C@@H](C)COP(=O)(O)O [VPC12101]

- LPA3 Emax (human LPA3 [1]): 83.5
- EC50 (human LPA3 [1]): 1080 nM
- LPA2 Emax (human LPA2 [2]): 92.6
- EC50 (human LPA2 [2]): 162 nM
- LPA1 Emax (mouse LPA1): 66.8
- EC50 (mouse LPA1): 35.8 nM
Molecule: CCCCCCCC/C=C\CCCCCCCC(=O)N[C@H](CC)COP(=O)(O)O [VPC12109]

- LPA3 Emax (human LPA3 [1]): 102.9
- EC50 (human LPA3 [1]): 684 nM
- LPA2 Emax (human LPA2 [2]): 103.2
- EC50 (human LPA2 [2]): 50.3 nM
- agonist activity at LPA1, in words (mouse LPA1): more potent than 1-oleoyl LPA
- LPA1 Emax (mouse LPA1): 98.7
- EC50 (mouse LPA1): 4.9 nM
Molecule: CCCCCCCC/C=C\CCCCCCCC(=O)N[C@H](CN)COP(=O)(O)O [VPC12178]

- agonist activity at LPA1, in words (mouse LPA1): more potent than 1-oleoyl LPA
Molecule: CCCCCCCC/C=C\CCCCCCCC(=O)N[C@H](CO)COP(=O)(O)O [VPC31143]

- agonist activity at LPA3, in words (human LPA3 [1]): agonist
- agonist activity at LPA1, in words (mouse LPA1): agonist
- antagonist activity at LPA2, in words (human LPA2 [4]): antagonist activity
Molecule: CCCCCCCC/C=C\CCCCCCCC(=O)N[C@@H](COP(=O)(O)O)Cc1ccc(OCc2ccc(CCCCC)cc2)cc1 [VPC31162]

The remaining lines, values behind:

Molecule: 1-acyl, 2-hydroxyl-sn-glycerol-3-phosphate [LPA, reference compound]
- LPA3 Emax (human LPA3 [1]): 100
- EC50 (human LPA3 [1]): 262 nM
- EC50 (human LPA2 [2]): 6.8 nM

Molecule: CCCCCC=CCC=CCCCCCCCC(=O)NC(COP(=O)(O)O)Cc1ccc(OCc2ccccc2)cc1 (stereo not shown) [Compound 29e]
- antagonist activity at LPA1, in words (LPA1 receptor): potency comparable to lead compound 26

Molecule: CCCCCCCCC=CCCCCCCCC(=O)NC(COP(=O)(O)O)Cc1ccc(OC(=O)c2ccc(N)cc2)cc1 (stereo not shown) [Compound 35p]
- antagonist activity at LPA1, in words (LPA1 receptor): devoid of activity
- antagonist activity at LPA3, in words (human LPA3 [3]): devoid of activity

Molecule: CCCCCCCC/C=C\CCCCCCCC(=O)N[C@@H](COP(=O)(O)O)C(=O)c1ccc(OCc2ccccc2)cc1 [Compound 39a]
- IC50 (LPA1 receptor): > 10000 nM
- IC50 (human LPA3 [3]): > 10000 nM

Molecule: CCCCCCCC/C=C\CCCCCCCC(=O)N[C@H](COP(=O)(O)O)C(=O)c1ccc(OCc2ccccc2)cc1 [Compound 39b]
- antagonist activity at LPA1, in words (LPA1 receptor): retains potency comparable to 26
- IC50 (LPA1 receptor): 2490 nM
- IC50 (human LPA3 [3]): > 10000 nM

Molecule: CCCCCCCC/C=C\CCCCCCCC(=O)N[C@H](COP(=O)(O)O)Cc1ccc(OCc2cccc(OC)n2)cc1 [Compound 57f]
- IC50 (LPA1 receptor): > 10000 nM
- IC50 (human LPA3 [3]): 1090 nM

Molecule: CCCCCCCC/C=C\CCCCCCCC(=O)N[C@@H](COP(=O)(O)O)Cc1ccc(OCc2cc(OCC)ccn2)cc1 [Compound 57h]
- IC50 (LPA1 receptor): 143 nM
- Ki (LPA1 receptor): 26 nM
- IC50 (human LPA3 [3]): 39 nM

Molecule: CCCCCCCCC=CCCCCCCCC(=O)NC(COP(=O)(O)O)Cc1ccc(OCc2cc(OCC(F)(F)F)ccn2)cc1 (stereo not shown) [Compound 57i]
- antagonist activity at LPA1, in words (LPA1 receptor): equipotent to 26a
- IC50 (LPA1 receptor): 84 nM
- Ki (LPA1 receptor): 19 nM
- antagonist activity at LPA3, in words (human LPA3 [3]): three-fold more potent
- IC50 (human LPA3 [3]): 48 nM

Molecule: CCCCCCCC/C=C\CCCCCCCC(=O)N[C@@H](COP(=O)(O)O)Cc1ccc(OCc2cc(OCCC)ccn2)cc1 [Compound 57j]
- IC50 (LPA1 receptor): 141 nM
- Ki (LPA1 receptor): 64 nM

Molecule: CCCCCCCC/C=C\CCCCCCCC(=O)N[C@@H](COP(=O)(O)O)Cc1ccc(OCc2ncc(C)c(OC)c2C)cc1 [Compound 57l]
- IC50 (LPA1 receptor): 62 nM
- Ki (LPA1 receptor): 28 nM
- IC50 (human LPA3 [3]): 39 nM

Molecule: CCCCCCCC/C=C\CCCCCCCC(=O)N[C@H](COP(=O)(O)O)Cc1ccc(OCc2ncc(C)c(OC)c2C)cc1 [Compound 57m]
- IC50 (LPA1 receptor): 3690 nM
- IC50 (human LPA3 [3]): 561 nM

Molecule: CCCCCCCC/C=C\CCCCCCCC(=O)N[C@@H](COP(=O)(O)O)Cc1ccc(OCc2ccc3ccccc3n2)cc1 [Compound 57n]
- IC50 (LPA1 receptor): 1430 nM
- IC50 (human LPA3 [3]): 533 nM

Molecule: CCCCCCCC/C=C\CCCCCCCC(=O)N[C@H](COP(=O)(O)O)Cc1ccc(OCc2cc(OC)c3ccccc3n2)cc1 [Compound 57p]
- IC50 (LPA1 receptor): > 10000 nM
- IC50 (human LPA3 [3]): 2600 nM

Molecule: CCCCCCCC/C=C\CCCCCCCC(=O)N[C@@H](CCP(=O)(O)O)Cc1ccc(OCc2ncc(C)c(OC)c2C)cc1 [Compound 63d]
- antagonist activity at LPA1, in words (LPA1 receptor): no antagonism
- IC50 (LPA1 receptor): > 10000 nM
- antagonist activity at LPA3, in words (human LPA3 [3]): improved potency over lead compound 26a
- IC50 (human LPA3 [3]): 150 nM

Molecule: CCCCCCCC/C=C\CCCCCCCC(=O)N[C@@H](CN)COP(=O)(O)O [Compound 12048]
- LPA3 Emax (human LPA3 [1]): 3.8
- EC50 (human LPA3 [1]): > 5000 nM
- LPA2 Emax (human LPA2 [2]): 36.4
- EC50 (human LPA2 [2]): > 5000 nM
- LPA1 Emax (mouse LPA1): 9.4
- EC50 (mouse LPA1): > 5000 nM

Molecule: CCCCCCCC/C=C\CCCCCCCC(=O)NCCC(=O)P(=O)(O)O [VPC12060]
- inhibition of LPP3 (LPP3 (PAP2b)): markedly better at the PAP2b (LPP3) than PAP2a (LPP1)
